Tests used:
HDAC 1 = HDAC 1 (Homo sapiens, UniProt Q13547); assay: Enzyme activity detection of histone deacetylase 1 (fluorogenic substrate deacetylation); format: biochemical; details: 0.28 ng/μL HDAC 1, 10 μM substrate; IC50 class
Description: During the deacetylation detection of a substrate, the HDAC inhibition activity of the compound of the present invention was detected.
C: Enzyme Activity Detection of Histone Deacetylase 1
Acetyl on the substrate was removed by the HDAC 1, so that the substrate was activated, and the developing liquid added subsequently could act on the substrate to release the fluorescent group. The size of the fluorescence signal reflected the activity of the HDAC 1. The IC50 detection method for this enzyme was disclosed in Chuping Xu, Elisabetta Soragni Improved Histone Deacetylase Inhibitors as Therapeutics for the Neurdegenerative Disease Friedreich's Ataxia: A New Synthetic Route. The total reaction system (100 μL/well) contained 0.28 ng/μL of HDAC 1, 10 μM of the substrate and the compound in different concentrations. The fluorescence signal was detected online at Ex/Em=360/460. The inhibition effect of the compound was determined from the obtained data, a concentration response curve was obtained by using the inhibition effect and the concentration of the compound, and the value of IC50 was fitted according to a four-parameter model.
The activities of the compounds prepared in the embodiments against the histone deacetylases 1, 3 and 6 (i.e., HDAC 1, HDAC 3 and HDAC 6) were detected by the above methods, and the test results were shown in Table 2, where the measurements of IC50 of the compounds were classified according to the following description: […]

HCT-116 cells = assay: Cell growth inhibition measurement (CCK-8), HCT-116; format: cell-based; details: Homo sapiens, HCT-116, 72 h, highest EC50 measured during one or multiple operations, read-out: Inhibition activity against cancer cells, HCT-116 (EC50)
Description: (§1) A HepG2 cell strain and an HCT-116 cell strain were purchased from Shanghai Institutes for Biological Sciences; a DMEM high-sugar culture medium and an MEM culture medium were purchased from Hyclone; fetal calf serum was purchased from Gibco; trypsin was purchased from Invitrogen Shanghai; a CCK-8 kit was purchased from Beyotime Institute of Biotechnology; and, the remaining cell culture mediums and other consumables were purchased from Corning China.
(§2) HepG2 cells and HCT-116 cells in the logarithmic growth phase were digested by trypsin. After the counting of uniform cell suspension, the cell density was adjusted as 1500 cells/well by a culture medium containing 10% serum. The cells were re-inoculated to a 96-well cell culture plate, and cultured to a volume of 200 μL at 37° C. in an incubator containing 5% CO2. The cells could be tested after being cultured for 24 h.
(§3) The cells cultured for 24 h were taken out from the incubator. The culture liquid in the well plate was sucked out, and 200 μL of compound solution prepared in the culture medium containing 10% fetal calf serum was added in each well. Five parallel mediums were provided for each concentration, and a DMSO culture medium was used as negative control. The culture mediums were cultured for 72 h at 37° C. in an incubator containing 5% CO2, and CCK-8 detection was performed.
(§4) A serum-free culture medium and CCK-8 solution were prepared, and CCK-8 working solution was prepared at a ratio of 10:1 (this process should be performed in dark place).
(§5) The cells cultured for 72 h were taken out from the incubator. The culture liquid in the well plate was sucked out, and 120 μL of the CCK-8 working solution was added in each well. A well plate without cells was also added with 120 μL of the CCK-8 working solution to serve as blank control. The well plates were cultured for 1 h at 37° C. in an incubator containing 5% CO2 (this process should be performed in dark place).
(§6) The well plates were taken out from the incubator, 100 μL of solution in each well was sucked out and added in a new 96-well plate, and the absorbance was measured at 450 nm (this process should be performed in dark place).
(§7) where Tx is the absorbance of the CCK-8 after the compound acts for 72 h;
(§8) C is the absorbance of the CCK-8 after the negative control wells are cultured for 72 h; and
(§9) B is the absorbance of the CCK-8 in the blank control wells.
(§10) The test results of the compounds prepared according to the embodiments during the measurement are shown in Table 3, wherein the measured highest EC50 of the compounds during one operation or multiple operations is classified according to the following description: […]

HepG2 cells = assay: Cell growth inhibition measurement (CCK-8), HepG2; format: cell-based; details: Homo sapiens, HepG2, 72 h, highest EC50 measured during one or multiple operations, read-out: Inhibition activity against cancer cells, HepG2 (EC50)
Description: as §1, §2, §3, §4, §5, §6, §7, §8, §9, §10

Chain of HDAC 1 (Q13547 whole entry, species assumed): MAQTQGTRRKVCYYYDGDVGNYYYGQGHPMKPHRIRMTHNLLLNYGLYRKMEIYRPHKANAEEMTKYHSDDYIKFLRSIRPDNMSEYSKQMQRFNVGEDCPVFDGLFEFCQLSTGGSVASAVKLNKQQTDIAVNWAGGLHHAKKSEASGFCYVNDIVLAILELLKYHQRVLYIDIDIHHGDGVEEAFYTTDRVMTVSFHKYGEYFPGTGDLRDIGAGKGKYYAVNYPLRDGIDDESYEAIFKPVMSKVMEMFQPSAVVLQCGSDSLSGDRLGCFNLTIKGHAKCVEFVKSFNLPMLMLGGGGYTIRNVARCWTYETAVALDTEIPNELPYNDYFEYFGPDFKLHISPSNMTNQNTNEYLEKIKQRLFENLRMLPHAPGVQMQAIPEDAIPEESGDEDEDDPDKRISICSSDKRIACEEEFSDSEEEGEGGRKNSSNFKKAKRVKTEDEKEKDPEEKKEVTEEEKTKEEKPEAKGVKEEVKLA

| SMILES | IC50 (HDAC 1) [µM] | EC50 (HCT-116 cells) [µM] | EC50 (HepG2 cells) [µM] |
| --- | --- | --- | --- |
| CN(C)Cc1ccc(-c2ccc(S(=O)(=O)N3CC=C(C(=O)NO)CC3)cc2)cc1 [Compound 8, N-hydroxyl-1((4′-((dimethylamino)methyl)-[1, 1′-biphenyl]-4-yl)sulfonyl)-1,2,3,6-tetrahydropyridine-4-formamide] | < 0.1 | < 0.1 | < 0.1 |
| CN1CCN(c2ccc(-c3ccc(S(=O)(=O)N4CC=C(C(=O)NO)CC4)cn3)cc2)CC1 [Compound 13, N-hydroxyl-1-((6-(4-(4-methylpiperazine-1-yl)phenyl)pyridine-3-yl)sulfonyl)-1,2,3,6-tetrahydropyridine-4-formamide] | < 0.1 | < 0.1 | < 0.1 |
| CN(C)CCc1ccc(-c2ccc(S(=O)(=O)N3CC=C(C(=O)NO)CC3)cc2)cc1 [Compound 12, N-hydroxyl-1-((4′-(2-(dimethylamino)ethyl)-[1, 1′-biphenyl]-4-yl)sulfonyl)-1,2,3,6-tetrahydropyridine-4-formamide] | < 0.1 | < 0.1 | < 0.1 |
| CN(C)CCNC(=O)c1ccc(-c2ccc(S(=O)(=O)N3CC=C(C(=O)NO)CC3)cc2)cc1 [Compound 22, N-hydroxyl-1-((4′-((2-(dimethylamino)ethyl)aminoformyl)-[1,1′-biphenyl]-4-yl)sulfonyl)-1,2,3,6-tetrahydropyridine-4-formamide] |  |  | > 0.1 |
| CN1CCN(c2ccc(-c3ccc(S(=O)(=O)N4CC=C(C(=O)NO)CC4)cc3F)cc2)CC1 [Compound 7, N-hydroxyl-1-((2-fluoro-4′-(4-methylpiperazine-1-yl)-[1,1′-biphenyl]-4-yl)sulfonyl)-1,2,3,6-tetrahydropyridine-4-formamide] |  | < 0.1 | < 0.1 |
| O=C(NO)C1=CCN(S(=O)(=O)c2ccc(-c3ccc(CN4CCOCC4)cc3)cc2)CC1 [Compound 21, N-hydroxyl-1-((4′-(morpholinylmethyl)-[1,1′-biphenyl]-4-yl)sulfonyl)-1,2,3,6-tetrahydropyridine-4-formamide] |  | < 0.1 | < 0.1 |
| CN1CCN(c2ccc(-c3ccc(S(=O)(=O)N4CC=C(C(=O)NO)CC4)cc3)cn2)CC1 [Compound 5] |  |  | < 0.1 |
| CN1CCCN(c2ccc(-c3ccc(S(=O)(=O)N4CC=C(C(=O)NO)CC4)cc3)cn2)CC1 [Compound 24, N-hydroxyl-1-((4-(6-(4-methyl-1,4-diazaheptane-1-yl)pyridine-3-yl)phenyl)sulfonyl)-1,2,3,6-tetrahydropyridine-4-formamide] |  |  | < 0.1 |
| CCN(CC)Cc1ccc(-c2ccc(S(=O)(=O)N3CC=C(C(=O)NO)CC3)cc2)cc1 [Compound 18, N-hydroxyl-1-((4′-((diethylamino)methyl)-[1,1′-biphenyl]-4-yl)sulfonyl)-1,2,3,6-tetrahydropyridine-4-formamide] | < 0.1 | < 0.1 | < 0.1 |
| CN1CCN(c2ccc(-c3ccc(S(=O)(=O)N4C=CC(C(=O)NO)CC4)cc3)cc2)CC1 (stereo not shown) [Compound 15, N-hydroxyl-1-((4′-(4-methylpiperazine-1-yl)-[1, 1′-biphenyl]-4-yl)sulfonyl)-1,2,3,4-tetrahydropyridine-4-formamide] | < 0.1 | < 0.1 | < 0.1 |
| CN1CCC(n2cc(-c3ccc(S(=O)(=O)N4CC=C(C(=O)NO)CC4)cc3)cn2)CC1 [Compound 14, N-hydroxyl-1-((4-(1-(1-methylpiperidine-4-yl)-1H-pyrazol-4-yl)phenyl)sulfonyl)-1,2,3,6-tetrahydropyridine-4-formamide] |  |  | > 0.1 |
| COCCN1CCN(c2ccc(-c3ccc(S(=O)(=O)N4CC=C(C(=O)NO)CC4)cc3)cn2)CC1 [Compound 17, N-hydroxyl-1-((4-(6-(4-(2-methoxyethyl)piperazine-1-yl)pyridine-3-yl)phenyl)sulfonyl)-1,2,3,6-tetrahydropyridine-4-formamide] |  |  | > 0.1 |
| CN1CCN(c2ccc(-c3ccc(S(=O)(=O)N4CC=C(C(=O)NO)CC4)cc3)cc2F)CC1 [Compound 3, N-hydroxyl-1-((3′-fluoro-4′-(4-methylpiperazine-1-yl)-[1,1′-biphenyl]-4-yl)sulfonyl)-1,2,3,6-tetrahydropyridine-4-formamide] |  |  | < 0.1 |

More lines, now with the values ahead:

| IC50 (HDAC 1) [µM] | EC50 (HCT-116 cells) [µM] | EC50 (HepG2 cells) [µM] | SMILES |
| --- | --- | --- | --- |
|  |  | < 0.1 | COCCN1CCN(c2ccc(-c3ccc(S(=O)(=O)N4CC=C(C(=O)NO)CC4)cc3)cc2)CC1 [Compound 4, N-hydroxyl-1-((4′-(4-(2-methoxyethyl)piperazine-1-yl)-[1,1′-biphenyl]-4-yl)sulfonyl)-1,2,3,6-tetrahydropyridine-4-formamide] |
|  |  | < 0.1 | O=C(NO)C1=CCN(S(=O)(=O)c2ccc(-c3ccc(N4CCNCC4)cc3)cc2)CC1 [Compound 10, N-hydroxyl-1-((4′-(piperazine-1-yl)-[1,1′-biphenyl]-4-yl)sulfonyl)-1,2,3,6-tetrahydropyridine-4-formamide] |
|  |  | < 0.1 | CC1CN(c2ccc(-c3ccc(S(=O)(=O)N4CC=C(C(=O)NO)CC4)cc3)cc2)CCN1C (stereo not shown) [Compound 9, N-hydroxyl-1-((4′-(3,4′-dimethylpiperazine-1-yl)-[1,1′-biphenyl]-4-yl)sulfonyl)-1,2,3,6-tetrahydropyridine-4-formamide] |
|  |  | < 0.1 | O=C(NO)C1=CCN(S(=O)(=O)c2ccc(-c3ccc(N4CCN(C5CC5)CC4)cc3)cc2)CC1 [Compound 11, N-hydroxyl-1-((4′-(4-cyclopropylpiperazine-1-yl)-[1,1′-biphenyl]-4-yl)sulfonyl)-1,2,3,6-tetrahydropyridine-4-formamide] |
| < 0.1 | < 0.1 | < 0.1 | CCN1CCN(c2ccc(-c3ccc(S(=O)(=O)N4CC=C(C(=O)NO)CC4)cc3)cc2)CC1 [Compound 6] |
|  | < 0.1 | < 0.1 | CN1CCN(Cc2ccc(-c3ccc(S(=O)(=O)N4CC=C(C(=O)NO)CC4)cc3)cc2)CC1 [Compound 20, N-hydroxyl-1-((4′-((4-methylpiperazine-1-yl)methyl)-[1,1′-biphenyl]-4-yl)sulfonyl)-1,2,3,6-tetrahydropyridazole-4-formamide] |
